Reference: ChEMBL document CHEMBL6178019, “Discovery of CYP1A1 Inhibitors for Host-Directed Therapy against Sepsis” (J Med Chem, 2025)

How the values were obtained:
CYP1A1 [1] = biological target: T1, CYP1A1 (Homo sapiens, UniProt P04798); assay: Inhibition of CYP1A1 in human Caco-2 cells at 500 nM incubated for 12 hrs by EROD assay relative to control; type: cell-based
T1 sequence (P04798 whole entry): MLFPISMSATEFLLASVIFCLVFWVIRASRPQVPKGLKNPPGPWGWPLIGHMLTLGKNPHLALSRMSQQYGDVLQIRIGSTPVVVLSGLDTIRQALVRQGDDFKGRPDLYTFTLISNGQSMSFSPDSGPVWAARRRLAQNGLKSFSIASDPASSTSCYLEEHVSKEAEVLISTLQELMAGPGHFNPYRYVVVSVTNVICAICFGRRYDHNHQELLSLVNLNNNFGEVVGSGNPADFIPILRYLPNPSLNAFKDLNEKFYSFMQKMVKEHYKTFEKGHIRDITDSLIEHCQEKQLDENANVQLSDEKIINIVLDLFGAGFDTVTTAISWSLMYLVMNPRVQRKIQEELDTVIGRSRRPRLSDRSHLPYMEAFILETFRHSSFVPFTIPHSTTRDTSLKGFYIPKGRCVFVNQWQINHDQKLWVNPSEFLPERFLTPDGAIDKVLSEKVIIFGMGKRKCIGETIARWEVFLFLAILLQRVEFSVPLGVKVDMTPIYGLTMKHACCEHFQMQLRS

CYP1A1 [2] = biological target: T2, CYP1A1 (Mus musculus, UniProt P00184); assay: Inhibition of CYP1A1 in mouse RAW264.7 cells at 500 nM incubated for 12 hrs by EROD assay relative to control; type: cell-based
T2 sequence (P00184 whole entry): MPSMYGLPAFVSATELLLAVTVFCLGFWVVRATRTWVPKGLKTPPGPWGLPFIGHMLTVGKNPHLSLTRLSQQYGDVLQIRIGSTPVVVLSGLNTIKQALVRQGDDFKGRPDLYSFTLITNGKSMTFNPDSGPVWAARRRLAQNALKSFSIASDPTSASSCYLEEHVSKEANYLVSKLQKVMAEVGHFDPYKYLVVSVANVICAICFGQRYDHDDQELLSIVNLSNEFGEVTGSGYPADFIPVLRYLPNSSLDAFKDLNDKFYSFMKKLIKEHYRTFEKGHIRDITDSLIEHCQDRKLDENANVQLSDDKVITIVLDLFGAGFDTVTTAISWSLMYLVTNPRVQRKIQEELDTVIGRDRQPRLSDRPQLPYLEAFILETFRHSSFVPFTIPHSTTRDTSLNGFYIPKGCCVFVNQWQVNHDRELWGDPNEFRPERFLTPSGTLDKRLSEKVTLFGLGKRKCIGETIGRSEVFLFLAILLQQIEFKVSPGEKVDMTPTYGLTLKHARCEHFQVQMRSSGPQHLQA

`C#Cc1ccccc1/C=C/C(=O)c1ccc2c(c1)n(C)c(=O)n2C` was tested, and the inhibition at 12 h, 0.5 µM (CYP1A1 [1]) was less than 10% and the inhibition at 12 h, 0.5 µM (CYP1A1 [2]) was less than 10%.
